Reference: US20260232706A1, “1H-PYRAZOLE ANALOGUES AND METHODS AND USES THEREOF” (University of Manitoba, priority 2022, published 2026)

Legend:
WG37R mice = test: 120-day chronic toxicity assessment in WG37R mice; format: in vivo; details: 10 mg/kg/day IP daily for 120 days
Procedure: The WG37R mice were randomly assigned to 2 groups: For the second set of the experiment, a total of 6 animals per group (3 male and 3 female) were used in the study. Group 3: Sham treatment 1 (1:20 DMSO/PBS) and Group 4: NS-1-2 (10 mg/kg body weight). According to requirement of acute toxicity study, 6-10 animals should be used to evaluate the effect of a substance. However, as the new analogues are structurally similar to Edaravone, having a single-dose safety profile of 450 mg/kg, the mortality of the Edaravone analogues at a dose of 10 mg/kg body weight/day was not expected. Considering the above facts, for the present acute study, the proposed minimum number of animals was 6 per group. Morphological alterations, histological changes, and mean body weight assessments for whole set of animals, for both the WG37R control groups (N=5; 1:20, DMSO:PBS) and WG37R treated groups (N=6; NS-1-2; 10 mg/kg bodyweight) were assessed during the 120-day chronic toxicity assessment, by giving daily of 120 IP injection to the mouse at 3 months of age. Only one male mice from group 3 (control) was terminated unexpectedly, and was likely due to an accidental error in injection (discussed with Central Animal Care Services, veterinarians and staff). IP injections may be difficult because of the aggressiveness of mice (particularly the male mice, during physical restraint). […]

[1] = tested on: neuroblastoma-spinal cord hybrid NSC-34 cells; test: Neuroprotective effect/cell viability analysis in NSC-34 cells against H2O2 induced oxidative stress; format: cell-based; details: prophylactic treatment, 250 μM H2O2, FIG. 7A

Cc1cc(B2OC(C)(C)C(C)(C)O2)n(-c2ccccc2)n1 [NS-1-2, 3-methyl-5-(4,4,5,5-tetramethyl-1,3,2-dioxaborolan-2-yl)-1-phenyl1H-pyrazole]
clinical signs of toxicity compared to vehicle-treated mice (WG37R mice): no clinical signs of toxicity
tolerability (WG37R mice): seemingly tolerated
protection from loss of cell viability induced by H2O2 [1]: protected NSC-34 cells from loss of cell viability
